# Data: patent publication US12458052B2, “Human milk oligosaccharides for use in enhancing executive function” (Glycom A/S, priority 2019, dated 2025)
# Tested on: genes related to myelination; myelination and myelin sheath pathway
# Test: gene expression and KEGG pathway analysis of brain samples, cross-fostering to St6Gal1 KO dams
# Type: in vivo, mice
# Settings: presence in maternal milk, especially during early life
# Source text: Adult wild-type (WT) B6.129 and heterozygous (HZ) B6.129-St6gal1^tm2Jxm breeding pairs (four males and four females and three males and four females, respectively) were purchased from a commercial breeder (The Jackson Laboratory). Upon arrival, same-sex mice were housed in same-sex groups of 2-3 in type-1 polycarbonate cages (33.0×13.0×14.0 cm) equipped with sawdust bedding, an enrichment bag (Mucedola, Settimo Milanese, Italy), metal top and ad libitum water and food pellets (Mucedola, Settimo Milanese, Italy). Mice were maintained on a reversed 12-h-light-dark cycle (light on at 7:00 PM) in an air-conditioned room (temperature 21±1° C. and relative humidity 60±10%). Two weeks after arrival, breeding triads (one male, two females) were formed. After two weeks of mating, male mice were removed and females were housed individually in standard type-1 cages. Females were checked daily for delivery and the day in which they gave birth was designated as postnatal day (PND) 0. […]
# Quantification is performed using Quant It Ribogreen assay (Life Technologies) QC assessment is performed using Standard sensitivity RNA kit on Fragment Analyzer 96 (Agilent). […]
# Library generation starts with oligodT priming containing the Illumina-specific Read 2 linker sequence. […] The random primer contains the Illumina-specific Read 1 linker sequence. […]
structure (smiles),measurement,value
"CC(=O)N[C@H]1[C@H]([C@H](O)[C@H](O)CO)O[C@@](OC[C@H]2O[C@@H](O[C@H]3[C@H](O)[C@@H](O)[C@H](O)O[C@@H]3CO)[C@H](O)[C@@H](O)[C@H]2O)(C(=O)O)C[C@@H]1O [6′-SL, 6′-sialyllactose]",optimal myelination of the prefrontal cortex,necessary
